In patent US20060258681A1, “3-Z-[1-(4-(N-((4-Methyl-piperazin-1-yl)-methylcarbonyl)-N-methyl-amino)-anilino)-1-phenyl-methylene]-6-methoxycarbonyl-2-indolinone-monoethanesulphonate and the use thereof as a pharmaceutical composition” (priority 2002, published 2006):

Legend:
[1] = test system: Human Umbilical Cord Endothelial Cells stimulated by the VEGF; test: HUVEC cellular assay (cellular proliferation inhibition); assay type: cell-based
Description: (§1) Experimental studies have shown that a metabolite of the compound 3-Z-[1-(4-(N-((4-methyl-piperazin-1-yl)-methylcarbonyl)-N-methyl-amino)-anilino)-1-phenyl-methylene]-6-methoxycarbonyl-2-indolinone-monoethanesulphonate is the de-esterified 3-Z-[1-(4-(N-((4-methyl-piperazin-1-yl)-carbonyl)-N-methyl-amino)-anilino)-1-phenyl-methylene]-6-carboxy-2-indolinone. The in-vitro inhibitory activity of this metabolite on several kinases has been evaluated, using standard known kinase inhibition assays as well as a standard known cellular proliferation inhibition assay (inhibition of the proliferation of Human Umbilical Cord Endothelial Cells stimulated by the VEGF, the so-called “HUVEC cellular assay”). These experimental results have shown that this metabolite inhibits several kinases, such as VEGFR-2, VEGFR-3, Her-2, FGFR-1, PDGFR-alpha or InsR, as well as the proliferation of HUVEC VEGF stimulated cells.

PDGFR-alpha = PDGFR-alpha (Homo sapiens, UniProt P16234); test: standard known kinase inhibition assay, PDGFR-alpha; assay type: biochemical
Description: as §1

Her-2 = Her-2 (Homo sapiens, UniProt P04626); test: standard known kinase inhibition assay, Her-2; assay type: biochemical
Description: as §1

InsR = InsR (Homo sapiens, UniProt P06213); test: standard known kinase inhibition assay, InsR; assay type: biochemical
Description: as §1

VEGFR-2 = VEGFR-2 (Homo sapiens, UniProt P35968); test: standard known kinase inhibition assay, VEGFR-2; assay type: biochemical
Description: as §1

VEGFR-3 = VEGFR-3 (Homo sapiens, UniProt P35916); test: standard known kinase inhibition assay, VEGFR-3; assay type: biochemical
Description: as §1

FGFR-1 = FGFR-1 (Homo sapiens, UniProt P11362); test: standard known kinase inhibition assay, FGFR-1; assay type: biochemical
Description: as §1

hygroscopicity = assay type: physicochemical
[2] = amorphisation during grinding and compression; assay type: physicochemical
[3] = solubility in physiologically acceptable solvents; assay type: physicochemical

Sequence of FGFR-1 (P11362 22-822, species assumed): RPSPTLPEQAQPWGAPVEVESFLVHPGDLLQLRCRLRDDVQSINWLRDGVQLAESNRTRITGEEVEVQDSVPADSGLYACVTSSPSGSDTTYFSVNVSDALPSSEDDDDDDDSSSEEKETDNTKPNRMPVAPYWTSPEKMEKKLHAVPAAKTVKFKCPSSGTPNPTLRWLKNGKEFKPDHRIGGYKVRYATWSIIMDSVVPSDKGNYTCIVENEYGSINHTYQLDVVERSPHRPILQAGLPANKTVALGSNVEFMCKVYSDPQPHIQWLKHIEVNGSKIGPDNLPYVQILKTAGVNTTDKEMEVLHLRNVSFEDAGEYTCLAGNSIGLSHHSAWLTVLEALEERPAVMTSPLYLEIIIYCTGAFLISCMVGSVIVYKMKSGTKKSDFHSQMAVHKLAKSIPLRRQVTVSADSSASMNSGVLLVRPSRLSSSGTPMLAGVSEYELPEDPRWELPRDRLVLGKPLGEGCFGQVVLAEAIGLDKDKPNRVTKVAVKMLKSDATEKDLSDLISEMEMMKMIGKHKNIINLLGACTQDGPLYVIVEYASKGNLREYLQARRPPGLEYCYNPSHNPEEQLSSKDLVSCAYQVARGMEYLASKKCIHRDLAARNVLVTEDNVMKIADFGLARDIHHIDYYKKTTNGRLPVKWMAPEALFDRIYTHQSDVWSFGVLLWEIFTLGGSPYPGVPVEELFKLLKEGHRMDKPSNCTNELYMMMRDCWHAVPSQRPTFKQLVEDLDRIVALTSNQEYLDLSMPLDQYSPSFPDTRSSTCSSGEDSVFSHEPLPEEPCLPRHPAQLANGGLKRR
Sequence of PDGFR-alpha (P16234 24-1089, species assumed): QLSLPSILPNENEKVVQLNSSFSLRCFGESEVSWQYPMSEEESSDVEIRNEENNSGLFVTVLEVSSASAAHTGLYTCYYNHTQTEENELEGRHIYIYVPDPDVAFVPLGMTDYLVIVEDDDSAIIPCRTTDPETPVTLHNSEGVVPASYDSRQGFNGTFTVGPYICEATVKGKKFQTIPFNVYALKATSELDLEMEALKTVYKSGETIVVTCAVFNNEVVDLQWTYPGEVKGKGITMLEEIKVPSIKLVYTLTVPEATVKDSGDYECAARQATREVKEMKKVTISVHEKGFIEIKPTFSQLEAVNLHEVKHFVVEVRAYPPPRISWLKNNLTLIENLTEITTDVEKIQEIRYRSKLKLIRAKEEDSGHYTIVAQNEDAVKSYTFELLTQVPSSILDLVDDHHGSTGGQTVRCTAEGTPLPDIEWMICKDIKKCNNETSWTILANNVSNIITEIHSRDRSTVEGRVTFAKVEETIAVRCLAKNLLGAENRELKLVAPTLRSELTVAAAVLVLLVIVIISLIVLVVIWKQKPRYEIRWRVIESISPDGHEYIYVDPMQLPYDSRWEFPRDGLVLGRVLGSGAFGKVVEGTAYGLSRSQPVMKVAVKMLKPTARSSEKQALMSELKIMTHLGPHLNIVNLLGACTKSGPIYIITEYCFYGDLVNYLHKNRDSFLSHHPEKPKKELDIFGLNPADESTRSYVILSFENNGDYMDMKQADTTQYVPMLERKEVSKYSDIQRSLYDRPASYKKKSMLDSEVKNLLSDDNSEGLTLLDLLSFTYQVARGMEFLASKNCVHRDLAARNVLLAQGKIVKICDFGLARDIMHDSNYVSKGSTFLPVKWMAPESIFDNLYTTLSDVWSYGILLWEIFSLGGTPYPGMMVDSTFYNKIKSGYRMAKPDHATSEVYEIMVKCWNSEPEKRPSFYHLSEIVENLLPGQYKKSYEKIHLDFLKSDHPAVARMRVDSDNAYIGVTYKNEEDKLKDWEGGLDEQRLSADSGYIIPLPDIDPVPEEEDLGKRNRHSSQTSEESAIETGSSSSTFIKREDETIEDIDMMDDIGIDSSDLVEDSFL
Sequence of InsR (P06213 28-1382, species assumed): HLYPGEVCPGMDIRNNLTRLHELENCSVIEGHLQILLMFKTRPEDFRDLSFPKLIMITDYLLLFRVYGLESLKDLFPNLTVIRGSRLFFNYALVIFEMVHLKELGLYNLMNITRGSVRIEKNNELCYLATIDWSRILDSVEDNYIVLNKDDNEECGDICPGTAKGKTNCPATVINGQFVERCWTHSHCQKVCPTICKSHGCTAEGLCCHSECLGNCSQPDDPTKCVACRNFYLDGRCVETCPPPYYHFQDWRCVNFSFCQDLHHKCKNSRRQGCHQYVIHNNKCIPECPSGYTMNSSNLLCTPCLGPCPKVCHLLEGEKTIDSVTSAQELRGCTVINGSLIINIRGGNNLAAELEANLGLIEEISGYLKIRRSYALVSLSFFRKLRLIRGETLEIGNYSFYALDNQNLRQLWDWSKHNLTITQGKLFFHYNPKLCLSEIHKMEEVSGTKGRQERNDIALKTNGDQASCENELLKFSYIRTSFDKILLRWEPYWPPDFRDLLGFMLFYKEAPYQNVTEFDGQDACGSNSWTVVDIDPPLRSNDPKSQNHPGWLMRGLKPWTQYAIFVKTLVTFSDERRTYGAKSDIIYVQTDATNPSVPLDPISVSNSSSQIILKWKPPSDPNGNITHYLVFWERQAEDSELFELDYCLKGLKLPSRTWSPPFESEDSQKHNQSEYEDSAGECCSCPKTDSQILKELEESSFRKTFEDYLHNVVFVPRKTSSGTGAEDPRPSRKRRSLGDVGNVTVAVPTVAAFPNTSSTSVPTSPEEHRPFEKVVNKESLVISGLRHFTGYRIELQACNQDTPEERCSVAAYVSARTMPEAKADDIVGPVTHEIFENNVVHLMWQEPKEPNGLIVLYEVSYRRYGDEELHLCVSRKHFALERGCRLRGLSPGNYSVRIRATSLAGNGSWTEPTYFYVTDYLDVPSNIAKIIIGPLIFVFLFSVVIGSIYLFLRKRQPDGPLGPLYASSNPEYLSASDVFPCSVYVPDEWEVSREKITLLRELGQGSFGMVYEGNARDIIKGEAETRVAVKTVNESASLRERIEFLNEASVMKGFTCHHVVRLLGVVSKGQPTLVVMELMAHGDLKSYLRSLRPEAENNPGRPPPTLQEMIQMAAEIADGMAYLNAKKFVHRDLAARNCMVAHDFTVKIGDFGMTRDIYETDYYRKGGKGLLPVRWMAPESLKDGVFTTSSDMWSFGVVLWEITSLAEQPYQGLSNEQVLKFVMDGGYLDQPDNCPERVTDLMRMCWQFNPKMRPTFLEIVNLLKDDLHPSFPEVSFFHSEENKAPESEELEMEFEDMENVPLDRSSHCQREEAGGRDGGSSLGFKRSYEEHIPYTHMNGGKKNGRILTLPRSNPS
Sequence of Her-2 (P04626 23-1255, species assumed): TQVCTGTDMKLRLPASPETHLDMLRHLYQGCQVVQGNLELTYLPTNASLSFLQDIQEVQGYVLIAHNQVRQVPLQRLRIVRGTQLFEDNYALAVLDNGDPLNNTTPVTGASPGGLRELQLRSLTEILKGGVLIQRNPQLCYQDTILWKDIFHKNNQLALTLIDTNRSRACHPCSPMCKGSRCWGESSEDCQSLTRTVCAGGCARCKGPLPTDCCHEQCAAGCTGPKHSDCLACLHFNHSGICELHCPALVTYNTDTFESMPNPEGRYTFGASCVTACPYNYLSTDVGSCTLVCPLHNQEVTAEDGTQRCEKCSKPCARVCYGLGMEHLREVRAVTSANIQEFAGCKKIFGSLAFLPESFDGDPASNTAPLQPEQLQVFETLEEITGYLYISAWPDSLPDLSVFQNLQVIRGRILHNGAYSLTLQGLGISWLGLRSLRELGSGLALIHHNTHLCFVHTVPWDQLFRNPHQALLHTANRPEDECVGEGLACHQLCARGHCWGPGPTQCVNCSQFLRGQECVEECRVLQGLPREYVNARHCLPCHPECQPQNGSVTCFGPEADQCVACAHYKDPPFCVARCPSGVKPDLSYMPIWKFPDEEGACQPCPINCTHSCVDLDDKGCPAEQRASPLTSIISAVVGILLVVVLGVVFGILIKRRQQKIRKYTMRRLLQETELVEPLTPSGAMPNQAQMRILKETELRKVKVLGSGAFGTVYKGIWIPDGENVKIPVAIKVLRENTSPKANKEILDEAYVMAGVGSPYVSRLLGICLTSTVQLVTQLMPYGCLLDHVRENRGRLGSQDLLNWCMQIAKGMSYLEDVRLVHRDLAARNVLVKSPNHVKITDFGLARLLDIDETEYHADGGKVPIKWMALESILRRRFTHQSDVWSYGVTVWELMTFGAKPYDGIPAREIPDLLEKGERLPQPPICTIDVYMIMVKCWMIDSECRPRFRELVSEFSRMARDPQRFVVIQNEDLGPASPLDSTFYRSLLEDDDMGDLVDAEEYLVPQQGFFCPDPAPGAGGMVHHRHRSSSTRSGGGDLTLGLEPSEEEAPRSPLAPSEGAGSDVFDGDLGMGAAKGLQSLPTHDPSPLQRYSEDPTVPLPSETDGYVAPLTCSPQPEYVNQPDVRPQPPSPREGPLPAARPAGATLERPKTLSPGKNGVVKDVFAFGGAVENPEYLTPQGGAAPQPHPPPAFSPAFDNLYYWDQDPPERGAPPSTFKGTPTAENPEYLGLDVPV

in-vitro inhibitory activity on PDGFR-alpha (PDGFR-alpha)	in-vitro inhibitory activity on Her-2 (Her-2)	in-vitro inhibitory activity on InsR (InsR)	in-vitro inhibitory activity on VEGFR-2 (VEGFR-2)	in-vitro inhibitory activity on VEGFR-3 (VEGFR-3)	in-vitro inhibitory activity on FGFR-1 (FGFR-1)	hygroscopicity (hygroscopicity)	amorphisation [2]	solubility [3]	Structure (SMILES)	inhibition of the proliferation of HUVEC VEGF stimulated cells [1]
inhibits	inhibits	inhibits	inhibits	inhibits	inhibits				CN1CCN(C(=O)N(C)c2ccc(N/C(=C3\C(=O)Nc4cc(C(=O)O)ccc43)c3ccccc3)cc2)CC1 [3-Z-[1-(4-(N-((4-methyl-piperazin-1-yl)-carbonyl)-N-methyl-amino)-anilino)-1-phenyl-methylene]-6-carboxy-2-indolinone]	inhibits
						not hygroscopic	low amorphisation	readily soluble	CCS(=O)(=O)O.COC(=O)c1ccc2c(c1)NC(=O)/C2=C(\Nc1ccc(N(C)C(=O)CN2CCN(C)CC2)cc1)c1ccccc1 [monoethanesulphonate, 3-Z-[1-(4-(N-((4-methyl-piperazin-1-yl)-methylcarbonyl)-N-methyl-amino)-anilino)-1-phenyl-methylene]-6-methoxycarbonyl-2-indolinone-monoethanesulphonate]	
